Structures can show the parent of a compound that is named as a salt.
How the values were obtained:
[1] = test system: monocrotaline-induced PAH rat model; assay: Monocrotaline-induced PAH rat model; type: in vivo, Wister rats; conditions: PAH rats, 10.0 mg/kg (po) daily for 3 weeks, positive control
PDE6A = PDE6A versus PDE5A1; cited from earlier work

Compound | mean pulmonary artery pressure (mPAP) [1] | right ventricle hypertrophy index (RVHI%) [1] | wall thickness percentage (WT%) [1] | IC50 potency against PDE6A relative to PDE5A1 (PDE6A) [fold]
CCCc1nn(C)c2c(=O)[nH]c(-c3cc(S(=O)(=O)N4CCN(C)CC4)ccc3OCC)nc12 [sildenafil citrate] | decreased significantly | decreased significantly | decreased significantly | 
CCCc1nn(C)c2c(=O)[nH]c(-c3cc(S(=O)(=O)N4CCN(C)CC4)ccc3OCC)nc12 [sildenafil] |  |  |  | 5

Reference: article PMC9072250 (Acta Pharmaceutica Sinica. B, 2021)
